Reference: ChEMBL document CHEMBL1909046, “DrugMatrix in vitro pharmacology data”

Columns and labels:
Thromboxane-A synthase = biological target: T1, Thromboxane-A synthase (Homo sapiens, UniProt P24557); test: biochemical; type: tissue-based, Platelet; conditions: platelet;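 note: enzyme inhibition assay with PGH2 supplied as substrate; in other assays of this panel Not Active means under 50% inhibition at 10 µM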
T1 sequence (P24557 whole entry): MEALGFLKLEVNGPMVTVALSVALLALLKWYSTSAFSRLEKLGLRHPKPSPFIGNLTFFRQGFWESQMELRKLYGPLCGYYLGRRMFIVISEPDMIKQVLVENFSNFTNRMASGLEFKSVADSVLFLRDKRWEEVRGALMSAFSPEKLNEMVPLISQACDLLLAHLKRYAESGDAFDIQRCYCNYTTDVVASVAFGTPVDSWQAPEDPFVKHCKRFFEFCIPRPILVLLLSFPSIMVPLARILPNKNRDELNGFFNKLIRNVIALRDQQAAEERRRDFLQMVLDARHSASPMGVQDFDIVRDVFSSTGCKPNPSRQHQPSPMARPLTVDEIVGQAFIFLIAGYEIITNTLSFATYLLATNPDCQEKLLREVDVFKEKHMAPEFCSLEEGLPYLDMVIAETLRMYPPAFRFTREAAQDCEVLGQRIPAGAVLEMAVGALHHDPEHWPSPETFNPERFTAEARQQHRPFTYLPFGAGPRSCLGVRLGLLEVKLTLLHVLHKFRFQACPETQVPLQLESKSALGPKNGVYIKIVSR

[1] = biological target: Mitogen-activated protein kinase 14 (Homo sapiens, UniProt Q16539); design: species or system Escherichia coli;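 note: inhibition of p38alpha enzyme activity in a biochemical kinase assay, with myelin basic protein serving as substrate; in other assays of this panel Not Active means under 50% inhibition at 10 µM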
Chain of Mitogen-activated protein kinase 14 (Q16539 whole entry): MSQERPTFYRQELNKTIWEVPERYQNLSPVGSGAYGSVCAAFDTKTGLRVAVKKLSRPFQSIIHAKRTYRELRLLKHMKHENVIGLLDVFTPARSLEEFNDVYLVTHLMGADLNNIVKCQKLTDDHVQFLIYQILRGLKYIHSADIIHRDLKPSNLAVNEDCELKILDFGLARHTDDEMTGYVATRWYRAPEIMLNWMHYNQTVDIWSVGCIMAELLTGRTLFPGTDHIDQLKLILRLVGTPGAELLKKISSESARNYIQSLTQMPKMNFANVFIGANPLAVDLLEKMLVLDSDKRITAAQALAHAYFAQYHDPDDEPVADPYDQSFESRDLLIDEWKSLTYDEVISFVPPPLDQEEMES

[2] = biological target: T2, Amine oxidase [flavin-containing] A (Homo sapiens, UniProt P21397); test: DRUGMATRIX: Monoamine Oxidase MAO-A enzyme inhibition (substrate: Kynuramine); design: species or system BTI-TN-5B1-4; conditions: bti-tn-5b1-4; Not Active = under 50% inhibition at 10 µM
T2 sequence (P21397 whole entry): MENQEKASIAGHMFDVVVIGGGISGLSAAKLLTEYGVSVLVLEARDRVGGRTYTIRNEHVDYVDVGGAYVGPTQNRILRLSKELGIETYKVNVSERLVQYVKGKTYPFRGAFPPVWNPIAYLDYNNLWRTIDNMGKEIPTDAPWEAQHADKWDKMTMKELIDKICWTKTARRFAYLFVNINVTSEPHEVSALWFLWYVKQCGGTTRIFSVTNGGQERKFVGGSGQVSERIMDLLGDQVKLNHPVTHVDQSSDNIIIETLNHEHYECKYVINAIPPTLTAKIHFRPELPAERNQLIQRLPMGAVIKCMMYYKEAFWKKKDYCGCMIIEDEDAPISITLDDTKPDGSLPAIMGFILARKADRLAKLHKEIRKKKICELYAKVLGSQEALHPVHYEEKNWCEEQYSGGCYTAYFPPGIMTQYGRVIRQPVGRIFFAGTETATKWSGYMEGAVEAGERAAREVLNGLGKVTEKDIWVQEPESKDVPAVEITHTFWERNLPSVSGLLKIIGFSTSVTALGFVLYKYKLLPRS

Cytochrome P450 2C9 = Cytochrome P450 2C9 (Homo sapiens, UniProt P11712); conditions: bti-tn-5b1-4; note: in other assays of this panel Not Active means under 50% inhibition at 10 µM
Chain of Cytochrome P450 2C9 (P11712 whole entry): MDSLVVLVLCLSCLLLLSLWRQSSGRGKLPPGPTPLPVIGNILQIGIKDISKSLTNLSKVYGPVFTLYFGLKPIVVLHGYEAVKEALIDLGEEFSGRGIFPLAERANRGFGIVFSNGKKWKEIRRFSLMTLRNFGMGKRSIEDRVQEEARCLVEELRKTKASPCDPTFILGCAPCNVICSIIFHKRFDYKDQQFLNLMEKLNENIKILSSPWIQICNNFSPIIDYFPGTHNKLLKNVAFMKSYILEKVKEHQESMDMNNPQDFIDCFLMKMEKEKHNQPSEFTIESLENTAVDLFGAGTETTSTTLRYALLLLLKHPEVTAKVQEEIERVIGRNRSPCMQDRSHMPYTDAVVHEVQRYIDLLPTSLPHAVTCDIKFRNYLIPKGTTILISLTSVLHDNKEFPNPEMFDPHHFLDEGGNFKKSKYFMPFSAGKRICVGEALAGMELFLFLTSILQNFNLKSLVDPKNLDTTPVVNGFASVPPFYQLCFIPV

Nitric oxide synthase 1 = Nitric oxide synthase 1 (Rattus norvegicus, UniProt P29476); type: tissue-based, Cerebellum; note: in other assays of this panel Not Active means under 50% inhibition at 10 µM
Chain of Nitric oxide synthase 1 (P29476 whole entry): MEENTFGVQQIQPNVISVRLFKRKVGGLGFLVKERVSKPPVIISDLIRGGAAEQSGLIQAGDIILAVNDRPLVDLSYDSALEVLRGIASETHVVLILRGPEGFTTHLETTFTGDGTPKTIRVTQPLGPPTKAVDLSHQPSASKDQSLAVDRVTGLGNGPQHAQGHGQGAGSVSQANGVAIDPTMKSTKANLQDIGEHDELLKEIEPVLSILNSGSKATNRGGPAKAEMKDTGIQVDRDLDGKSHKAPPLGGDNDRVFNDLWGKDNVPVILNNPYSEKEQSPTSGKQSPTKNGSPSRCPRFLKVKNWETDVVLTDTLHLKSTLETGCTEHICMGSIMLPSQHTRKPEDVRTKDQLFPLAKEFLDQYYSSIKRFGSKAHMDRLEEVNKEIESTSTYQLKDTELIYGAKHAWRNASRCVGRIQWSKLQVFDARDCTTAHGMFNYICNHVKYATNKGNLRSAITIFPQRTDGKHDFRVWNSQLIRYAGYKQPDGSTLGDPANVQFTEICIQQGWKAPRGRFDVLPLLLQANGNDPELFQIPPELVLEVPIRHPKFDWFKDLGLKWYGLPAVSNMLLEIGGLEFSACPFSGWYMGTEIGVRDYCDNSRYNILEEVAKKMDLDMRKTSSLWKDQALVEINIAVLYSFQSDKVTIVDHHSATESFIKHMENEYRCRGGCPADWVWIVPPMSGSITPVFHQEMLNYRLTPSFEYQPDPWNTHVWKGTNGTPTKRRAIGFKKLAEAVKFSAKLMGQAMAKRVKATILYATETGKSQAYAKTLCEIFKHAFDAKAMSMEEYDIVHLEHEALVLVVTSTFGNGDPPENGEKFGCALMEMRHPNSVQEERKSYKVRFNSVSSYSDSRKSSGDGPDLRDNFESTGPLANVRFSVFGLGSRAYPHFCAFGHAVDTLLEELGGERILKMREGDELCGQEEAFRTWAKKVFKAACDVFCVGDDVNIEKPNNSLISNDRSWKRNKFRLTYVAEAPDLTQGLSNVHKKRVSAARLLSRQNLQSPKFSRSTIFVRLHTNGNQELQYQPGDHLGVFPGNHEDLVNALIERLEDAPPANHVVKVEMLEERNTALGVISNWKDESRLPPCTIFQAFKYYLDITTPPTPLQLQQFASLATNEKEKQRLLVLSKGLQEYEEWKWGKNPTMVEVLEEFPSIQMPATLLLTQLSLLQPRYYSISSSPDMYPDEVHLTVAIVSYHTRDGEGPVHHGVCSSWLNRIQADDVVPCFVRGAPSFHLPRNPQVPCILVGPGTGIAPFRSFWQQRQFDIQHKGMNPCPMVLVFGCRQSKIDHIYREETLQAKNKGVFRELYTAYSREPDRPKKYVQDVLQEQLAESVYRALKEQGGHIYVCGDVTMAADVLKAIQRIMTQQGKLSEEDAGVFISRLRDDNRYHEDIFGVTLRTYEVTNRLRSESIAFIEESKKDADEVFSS

Adenosine receptor A2a = Adenosine receptor A2a (Homo sapiens, UniProt P29274); test: DRUGMATRIX: Adenosine A2A radioligand binding (ligand: […]); type: cell membranes, HEK293, Membrane; conditions: hek293; Not Active = under 50% inhibition at 10 µM
Chain of Adenosine receptor A2a (P29274 whole entry): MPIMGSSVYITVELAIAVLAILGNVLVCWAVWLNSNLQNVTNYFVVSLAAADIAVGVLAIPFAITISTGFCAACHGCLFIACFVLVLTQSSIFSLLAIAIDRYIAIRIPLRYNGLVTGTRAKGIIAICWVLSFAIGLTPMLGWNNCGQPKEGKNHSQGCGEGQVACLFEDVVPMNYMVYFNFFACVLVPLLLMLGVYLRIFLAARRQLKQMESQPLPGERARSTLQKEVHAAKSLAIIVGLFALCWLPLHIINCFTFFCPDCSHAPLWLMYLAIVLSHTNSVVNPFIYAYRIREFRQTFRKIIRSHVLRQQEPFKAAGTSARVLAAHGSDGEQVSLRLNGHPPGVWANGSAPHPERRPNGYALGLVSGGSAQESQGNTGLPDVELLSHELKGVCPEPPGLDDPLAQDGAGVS

CC(O)(P(=O)(O)O)P(=O)(O)O [ETIDRONIC ACID]
Not Active: IC50 (Thromboxane-A synthase) | IC50 [1] | IC50 [2] | IC50 (Cytochrome P450 2C9) | Ki (Cytochrome P450 2C9) | IC50 (Nitric oxide synthase 1) | IC50 (Adenosine receptor A2a)

CN1CCN(c2c(F)cc3c(=O)c(C(=O)O)cn(CCF)c3c2F)CC1 [FLEROXACIN]
Not Active: IC50 (Thromboxane-A synthase) | IC50 [1] | IC50 [2] | IC50 (Cytochrome P450 2C9) | Ki (Cytochrome P450 2C9) | IC50 (Nitric oxide synthase 1) | IC50 (Adenosine receptor A2a)

O=c1[nH]c(=O)n([C@H]2C[C@H](O)[C@@H](CO)O2)cc1F [FLOXURIDINE]
Not Active: IC50 (Thromboxane-A synthase) | IC50 [1] | IC50 [2] | IC50 (Cytochrome P450 2C9) | Ki (Cytochrome P450 2C9) | IC50 (Nitric oxide synthase 1) | IC50 (Adenosine receptor A2a)

COC(=O)Nc1nc2cc(C(=O)c3ccc(F)cc3)ccc2[nH]1 [FLUBENDAZOLE]
Not Active: IC50 (Thromboxane-A synthase) | IC50 [1] | IC50 [2] | IC50 (Cytochrome P450 2C9) | Ki (Cytochrome P450 2C9) | IC50 (Nitric oxide synthase 1) | IC50 (Adenosine receptor A2a)

CC(=O)OCC(=O)[C@@]1(O)CC[C@H]2[C@@H]3CCC4=CC(=O)CC[C@]4(C)[C@@]3(F)[C@@H](O)C[C@@]21C [FLUDROCORTISONE ACETATE]
Not Active: IC50 (Thromboxane-A synthase) | IC50 [1] | IC50 [2] | IC50 (Cytochrome P450 2C9) | Ki (Cytochrome P450 2C9) | IC50 (Nitric oxide synthase 1) | IC50 (Adenosine receptor A2a)

CCOC(=O)c1ncn2c1CN(C)C(=O)c1cc(F)ccc1-2 [FLUMAZENIL]
Not Active: IC50 (Thromboxane-A synthase) | IC50 [1] | IC50 [2] | IC50 (Cytochrome P450 2C9) | Ki (Cytochrome P450 2C9) | IC50 (Nitric oxide synthase 1) | IC50 (Adenosine receptor A2a)

O=C(O)P(=O)(O)O [FOSCARNET]
Not Active: IC50 (Thromboxane-A synthase) | IC50 [1] | IC50 [2] | IC50 (Cytochrome P450 2C9) | Ki (Cytochrome P450 2C9) | IC50 (Nitric oxide synthase 1) | IC50 (Adenosine receptor A2a)

Cc1ccc(C)c(OCCCC(C)(C)C(=O)O)c1 [GEMFIBROZIL]
Not Active: IC50 (Thromboxane-A synthase) | IC50 [1] | IC50 [2] | IC50 (Cytochrome P450 2C9) | Ki (Cytochrome P450 2C9) | IC50 (Nitric oxide synthase 1) | IC50 (Adenosine receptor A2a)

Nc1cc(-c2ccncc2)c[nH]c1=O [INAMRINONE]
Not Active: IC50 (Thromboxane-A synthase) | IC50 [1] | IC50 [2] | IC50 (Cytochrome P450 2C9) | Ki (Cytochrome P450 2C9) | IC50 (Nitric oxide synthase 1) | IC50 (Adenosine receptor A2a)

CCCCC1=NC2(CCCC2)C(=O)N1Cc1ccc(-c2ccccc2-c2nnn[nH]2)cc1 [IRBESARTAN]
Not Active: IC50 (Thromboxane-A synthase) | IC50 [1] | IC50 [2] | IC50 (Cytochrome P450 2C9) | Ki (Cytochrome P450 2C9) | IC50 (Nitric oxide synthase 1) | IC50 (Adenosine receptor A2a)

CN1CCC(=C2c3ccccc3CC(=O)c3sccc32)CC1 [KETOTIFEN]
Not Active: IC50 (Thromboxane-A synthase) | IC50 [1] | IC50 [2] | IC50 (Cytochrome P450 2C9) | Ki (Cytochrome P450 2C9) | IC50 (Nitric oxide synthase 1) | IC50 (Adenosine receptor A2a)

C[N+](C)(C)C[C@H](O)CC(=O)[O-] [LEVOCARNITINE]
Not Active: IC50 (Thromboxane-A synthase) | IC50 [1] | IC50 [2] | IC50 (Cytochrome P450 2C9) | Ki (Cytochrome P450 2C9) | IC50 (Nitric oxide synthase 1) | IC50 (Adenosine receptor A2a)

C[C@H]1COc2c(N3CCN(C)CC3)c(F)cc3c(=O)c(C(=O)O)cn1c23.C[C@H]1COc2c(N3CCN(C)CC3)c(F)cc3c(=O)c(C(=O)O)cn1c23.O [LEVOFLOXACIN]
Not Active: IC50 (Thromboxane-A synthase) | IC50 [1] | IC50 [2] | IC50 (Cytochrome P450 2C9) | Ki (Cytochrome P450 2C9) | IC50 (Nitric oxide synthase 1) | IC50 (Adenosine receptor A2a)

CCn1cc(C(=O)O)c(=O)c2cc(F)c(N3CCNC(C)C3)c(F)c21 (centres undefined) [LOMEFLOXACIN]
Not Active: IC50 (Thromboxane-A synthase) | IC50 [1] | IC50 [2] | IC50 (Cytochrome P450 2C9) | Ki (Cytochrome P450 2C9) | IC50 (Nitric oxide synthase 1) | IC50 (Adenosine receptor A2a)

CN1CCCC(CN2c3ccccc3Sc3ccccc32)C1 (centres undefined) [MEPAZINE]
Not Active: IC50 (Thromboxane-A synthase) | IC50 [1] | IC50 [2] | IC50 (Cytochrome P450 2C9) | Ki (Cytochrome P450 2C9) | IC50 (Nitric oxide synthase 1) | IC50 (Adenosine receptor A2a)

Cc1cccc(C)c1NC(=O)C1CCCCN1C (centres undefined) [MEPIVACAINE]
Not Active: IC50 (Thromboxane-A synthase) | IC50 [1] | IC50 [2] | IC50 (Cytochrome P450 2C9) | Ki (Cytochrome P450 2C9) | IC50 (Nitric oxide synthase 1) | IC50 (Adenosine receptor A2a)

CN(C)C(=N)NC(=N)N [METFORMIN]
Not Active: IC50 (Thromboxane-A synthase) | IC50 [1] | IC50 [2] | IC50 (Cytochrome P450 2C9) | Ki (Cytochrome P450 2C9) | IC50 (Nitric oxide synthase 1) | IC50 (Adenosine receptor A2a)

C[C@]12CC[C@H]3[C@@H](CCC4=CC(=O)CC[C@@H]43)[C@@H]1CC[C@@H]2O [NANDROLONE]
Not Active: IC50 (Thromboxane-A synthase) | IC50 [1] | IC50 [2] | IC50 (Cytochrome P450 2C9) | Ki (Cytochrome P450 2C9) | IC50 (Nitric oxide synthase 1) | IC50 (Adenosine receptor A2a)

CN(C)C(=O)Oc1cccc([N+](C)(C)C)c1.[Br-] [NEOSTIGMINE BROMIDE]
Not Active: IC50 (Thromboxane-A synthase) | IC50 [1] | IC50 [2] | IC50 (Cytochrome P450 2C9) | Ki (Cytochrome P450 2C9) | IC50 (Nitric oxide synthase 1) | IC50 (Adenosine receptor A2a)

NC(=O)c1cccnc1 [NIACINAMIDE]
Not Active: IC50 (Thromboxane-A synthase) | IC50 [1] | IC50 [2] | IC50 (Cytochrome P450 2C9) | Ki (Cytochrome P450 2C9) | IC50 (Nitric oxide synthase 1) | IC50 (Adenosine receptor A2a)

CS(=O)(=O)Nc1ccc([N+](=O)[O-])cc1Oc1ccccc1 [NIMESULIDE]
Not Active: IC50 (Thromboxane-A synthase) | IC50 [1] | IC50 [2] | IC50 (Cytochrome P450 2C9) | Ki (Cytochrome P450 2C9) | IC50 (Nitric oxide synthase 1) | IC50 (Adenosine receptor A2a)

CN1C(=O)CN=C(c2ccccc2)c2cc([N+](=O)[O-])ccc21 [NIMETAZEPAM]
Not Active: IC50 (Thromboxane-A synthase) | IC50 [1] | IC50 [2] | IC50 (Cytochrome P450 2C9) | Ki (Cytochrome P450 2C9) | IC50 (Nitric oxide synthase 1) | IC50 (Adenosine receptor A2a)
